Measured values as given in PubChem BioAssay (NCI).
Values joined by “and” are separate entries in the source; they are usually repeats but may differ in a detail not shown here. Identical values can stand only once.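 A five-concentration, 48-hour dose response in 96-well plates underlies each endpoint, interpolated linearly between surrounding concentrations. GI50 is the concentration that inhibits growth by half. TGI: concentration producing complete growth inhibition.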

Key:
Experiment in all cases: growth of human tumour cells (NCI), 48 h
[1] = tested on: SNB-19 CNS
[2] = tested on: SN12C renal
[3] = tested on: NCI-H460 lung
[4] = tested on: HT29 colon
[5] = tested on: OVCAR-8 ovarian
[6] = tested on: SF-539 CNS
[7] = tested on: IGROV1 ovarian
[8] = tested on: NCI-H522 lung
[9] = tested on: HCT-15 colon
[10] = tested on: SR leukemia

Row | Compound | TGI [1] | TGI [2] | TGI [3] | TGI [4] | TGI [5] | TGI [6] | TGI [7] | TGI [8] | GI50 [9] | TGI [9] | GI50 [1] | GI50 [2] | GI50 [3] | GI50 [4] | GI50 [5] | GI50 [6] | GI50 [7] | GI50 [8] | GI50 [10] | TGI [10]
1 | N=C1CSC2=NC3=C(CCC/C3=C\c3ccccc3)C(c3ccccc3)N12 (stereo unspecified) | 19.9 µM | 27.9 µM | 14.7 µM | 11.5 µM | 19.5 µM | 20 µM | 20.1 µM | 9.71 µM |  |  |  |  |  |  |  |  |  |  |  | 
2 | CN(C(=O)C12C3C4C1C1C2C3C41C(=O)C(C)(C)C)C(C)(C)C (stereo unspecified) | > 100 µM | > 100 µM |  | > 100 µM | > 100 µM | > 100 µM | > 100 µM | > 100 µM |  |  |  |  |  |  |  |  |  |  |  | 
3 | CC(C)CC(=O)[O-].CC(C)CC(=O)[O-].N.N.N.N.[Co+3].[O-][Cl+3]([O-])([O-])[O-] | > 100 µM | > 100 µM | > 100 µM | > 100 µM | > 100 µM | > 100 µM | > 100 µM | > 100 µM | > 100 µM | > 100 µM | > 100 µM | > 100 µM | > 100 µM | > 100 µM | > 100 µM | > 100 µM | > 100 µM | 51 µM and 90 µM |  | 
4 | CCOc1ccc2c(c1)[n+]([O-])c(S(=O)(=O)c1ccc(C)cc1)c(N)[n+]2[O-] | > 100 µM |  | > 100 µM | > 100 µM | > 100 µM | > 100 µM | > 100 µM | > 100 µM |  |  |  |  |  |  |  |  |  |  |  | 
5 | CCCCN(CCCC)C(=O)C(=O)C(C#N)c1ccc(C)cc1 (stereo unspecified) | > 100 µM | > 100 µM | > 100 µM | > 100 µM | > 100 µM | > 100 µM | > 100 µM | > 100 µM |  | > 100 µM |  |  |  |  |  |  |  |  |  | 
6 | CCCCC/C(C=C(C#N)C#N)=C/c1ccccc1 | 21.8 µM | 16.9 µM | 12.2 µM | 12.3 µM | > 100 µM | 17.7 µM | 27.7 µM | 19.7 µM | 5.13 µM | 27.5 µM | 6.53 µM | 3.74 µM | 3.22 µM | 3.61 µM | 3.34 µM | 5.17 µM | 8.18 µM | 4.5 µM |  | 
7 | O=C1c2c(c3c4ccccc4n(CCCCCCBr)c3c3[nH]c4ccccc4c23)C(=O)N1O | 21.5 µM | 12.8 µM | 11.8 µM | 3.25 µM | 10.3 µM | 3.77 µM | 9.38 µM |  | 2.64 µM | 11.2 µM | 4.98 µM | 3.68 µM | 3.35 µM | 1.73 µM | 3.11 µM | 1.78 µM | 2.13 µM |  | 1230 nM | 4.71 µM
8 | C=C(CN1CCc2ccccc2C1)c1ccc(C(=O)Nc2cnccn2)cc1 | > 100 µM | > 100 µM | > 100 µM | 59.5 µM | > 100 µM | 83.3 µM |  | 42.5 µM | 28.8 µM | > 100 µM | 51.1 µM | 50.4 µM | 36.3 µM | 24.1 µM | 30.2 µM | 7.59 µM |  | 18.2 µM |  | 
9 | O=C1/C(=C/c2ccc(Cl)cc2Cl)N=C(c2ccccc2)N1Cc1ccco1 |  | 36.1 µM | > 100 µM |  | 48.4 µM | 55.6 µM | 51 µM | 48.4 µM | 37.7 µM | > 100 µM |  | 18.7 µM | 26.6 µM |  | 20.5 µM | 23.7 µM | 18.6 µM | 18.9 µM | > 100000 nM | > 100 µM
10 | O=C1c2cccc(NCCN=Cc3cc(O)ccc3O)c2C(=O)c2c(NCCN=Cc3cc(O)ccc3O)cccc21 | 5.1 µM | 3.9 µM |  |  | 3.21 µM |  | 4.59 µM | 3.24 µM | 2.84 µM | 10.5 µM | 1.55 µM | 0.737 µM |  |  | 0.884 µM |  | 1.19 µM | 1.33 µM | 601 nM | 3.1 µM
11 | COc1cc2c3c(n(C)c(=O)c2cc1OC)-c1cc2c(cc1/C3=C\CCCN1C(=O)c3ccccc3C1=O)OCO2 | > 40 µM |  | > 40 µM | > 40 µM | > 40 µM | > 40 µM |  |  | > 40 µM | > 40 µM | > 40 µM |  | 4.76 µM | > 40 µM | 23.8 µM | 8.99 µM |  |  |  | 
12 | COc1ccc2c(c1)c(-c1nc(-c3cn(C)c4ncccc34)cs1)cn2CCCN1CCCCC1 | 3.52 µM | 3.17 µM | 3.7 µM |  |  | 3.22 µM | 3.46 µM | 3.37 µM | 1.53 µM | 2.96 µM | 1.9 µM | 1.71 µM | 1.95 µM |  |  | 1.75 µM | 1.74 µM | 1.68 µM | 1810 nM | 3.77 µM
13 | CC1(Cl)C(=O)NC(=O)N(C2CC(N=[N+]=[N-])C(CO)O2)C1N=[N+]=[N-] (stereo unspecified) | > 100 µM | > 100 µM | > 100 µM | > 100 µM | > 100 µM | > 100 µM | > 100 µM | > 100 µM |  | > 100 µM |  |  |  |  |  |  |  |  |  | 
14 | COc1cc(C2c3cc4c(cc3C(NCC(O)CO)C3COC(=O)[C@H]23)OCO4)cc(OC)c1OC (stereo partly specified) | > 100 µM | > 100 µM |  | > 100 µM | > 100 µM | 0.344 µM | > 100 µM |  |  | > 100 µM |  |  |  |  |  |  |  |  |  | > 100 µM
15 | COC(=O)C1=C(C(=O)OC)C2C=CC1C1C(Cl)=C(Cl)C21 (stereo unspecified) |  | > 100 µM | > 100 µM | > 100 µM | > 100 µM | > 100 µM | > 100 µM | > 100 µM |  | > 100 µM |  |  |  |  |  |  |  |  |  | 
16 | CCCCCCCCCC[C@@H](O)[C@@H]1CC[C@H]([C@H]2CC[C@@H]([C@@H](O)CCCCCCCCCC[C@H]3CC(CC(C)=O)C(=O)O3)O2)O1 (stereo partly specified) | 31.3 µM | 49.1 µM | > 100 µM | 34.6 µM | 37.8 µM | 22.7 µM | 39.2 µM | 13.2 µM |  | 34 µM |  |  |  |  |  |  |  |  |  | 
17 | N#Cc1ccc(C#Cc2ccccc2C#CCCCCO)cc1 | 29.9 µM | 31.8 µM | 49 µM | > 100 µM | 35.5 µM | 32 µM | 27.6 µM | 31.1 µM | 15.6 µM | 29 µM | 15.8 µM | 17.7 µM | 19.7 µM | 46 µM | 18.6 µM | 17.5 µM | 13.6 µM | 16.1 µM |  | 
